Test results taken from patent US20060270634A1, “Acetal phosphate-derived LPA mimics, PPARgamma activators, and autotaxin inhibitors” (priority 2005, published 2006).
Like-named read-outs stand apart in the source and are kept apart here. One block for each compound: values may come before it.

How the values were obtained:
LPA2 = LPA2 (Homo sapiens, UniProt Q9HBW0); experiment: Ca2+ transients in RH7777 cells expressing LPA2 (agonist / inhibition of LPA response)
[1] = target: lysophospholipase D (autotaxin, ATX) (Homo sapiens, UniProt Q13822); experiment: Inhibition of lysophospholipase D autotaxin; format: biochemical; conditions: Table 3
Procedure: (§1) The biological effects of all synthesized compounds were testing using three high-throughput assays. First, intracellular calcium transients in rat hepatoma (RH777, an LPA receptor null cell) cell lines individually expressing either LPA1, LPA2, and LPA3 receptors were analyzed to evaluate compounds as agonists or antagonists. […] The PPRE-Acox-Rluc construct contains a renilla luciferase coding region, an acyl-CoA oxidase coding region, and a PPAR response element coding region. Third, inhibition of the lysophospholipase D autotoxin was determined using a previously described procedure.
LPA is liberated as the product of lysophosphatidylcholine hyrolysis by the lysophospholipase D, autotaxin (ATX). The inventors screened Darmstoff analogs for ATX inhibition. As indicated by the data, all tested analogs are capable of ATX inhibition independently of their ligand properties at LPA GPCR and PPARγ.

PPARγ = target: T1, PPARγ (Homo sapiens, UniProt P37231); experiment: PPARγ activation, PPRE-Acox-Rluc reporter gene assay in CV1 cells; format: cell-based; conditions: for PPARγ: Table 3; for PPARγ activation in words: FIG. 9: 10 μM, 20 h
T1 construct: expressed in transfected cells; host or cells: CV1 cells (African green monkey kidney)
T1 sequence (P37231 1-505): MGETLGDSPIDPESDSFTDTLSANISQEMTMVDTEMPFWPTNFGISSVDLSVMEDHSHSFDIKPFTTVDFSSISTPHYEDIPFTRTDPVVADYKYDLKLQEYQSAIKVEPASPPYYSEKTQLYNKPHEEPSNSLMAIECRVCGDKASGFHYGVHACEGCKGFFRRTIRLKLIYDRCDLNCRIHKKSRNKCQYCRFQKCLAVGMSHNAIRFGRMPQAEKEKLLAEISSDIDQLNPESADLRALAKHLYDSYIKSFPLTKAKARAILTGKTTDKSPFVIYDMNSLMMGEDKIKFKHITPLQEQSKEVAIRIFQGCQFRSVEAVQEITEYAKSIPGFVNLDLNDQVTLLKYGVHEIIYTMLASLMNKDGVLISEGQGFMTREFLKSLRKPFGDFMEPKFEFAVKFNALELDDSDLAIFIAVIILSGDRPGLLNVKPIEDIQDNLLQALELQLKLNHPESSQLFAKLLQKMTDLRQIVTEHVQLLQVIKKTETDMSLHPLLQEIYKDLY
Procedure: as §1
PPARγ is a lipid-activated transcription factor that belongs to the nuclear hormone superfamily. The inventors examined the activity of all synthesized Darmstoff analogs as PPARγ activators in vitro in CV1 cells using a PPRE-Acox-Rluc reporter gene assay. Rosiglitazone, a known PPARγ agonist, was used as a positive control for comparison.
RH7777 cells, which lack LPA GPCR, were stably transfected with individual LPA1, LPA2 and LPA3 receptors and used for the in vitro screening.
Unlike the enantiospecific responses compounds at LPA GPCR by APA analogs, there was no stereoselectivity observed in PPARγ activation by these analogs.

LPA3 [2] = target: T2, LPA3 (Homo sapiens, UniProt Q9UBY5); experiment: Ca2+ transients in RH7777 cells expressing LPA3 (agonist / inhibition of LPA response); conditions: for EC50: read-out: LPA3 EC50; for IC50: read-out: LPA3 IC50
T2 sequence (Q9UBY5 1-353): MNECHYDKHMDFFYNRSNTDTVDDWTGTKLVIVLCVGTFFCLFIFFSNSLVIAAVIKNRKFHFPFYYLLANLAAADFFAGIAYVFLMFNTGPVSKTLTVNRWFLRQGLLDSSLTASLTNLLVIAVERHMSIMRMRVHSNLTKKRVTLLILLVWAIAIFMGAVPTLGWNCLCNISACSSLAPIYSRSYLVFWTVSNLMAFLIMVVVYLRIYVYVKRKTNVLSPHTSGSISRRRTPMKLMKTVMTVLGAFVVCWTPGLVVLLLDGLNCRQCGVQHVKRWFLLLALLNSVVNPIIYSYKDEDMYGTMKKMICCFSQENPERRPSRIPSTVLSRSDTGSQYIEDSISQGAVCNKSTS

PC3 cells = experiment: Calcium mobilization response in PC3 cells; format: cell-based; conditions: for IC50: read-out: PC3 cells IC50
LPA1 [3] = target: T3, LPA1 (Homo sapiens, UniProt Q92633); experiment: Ca2+ transients in RH7777 cells expressing LPA1 (agonist / inhibition of LPA response)
T3 sequence (Q92633 whole entry, species assumed): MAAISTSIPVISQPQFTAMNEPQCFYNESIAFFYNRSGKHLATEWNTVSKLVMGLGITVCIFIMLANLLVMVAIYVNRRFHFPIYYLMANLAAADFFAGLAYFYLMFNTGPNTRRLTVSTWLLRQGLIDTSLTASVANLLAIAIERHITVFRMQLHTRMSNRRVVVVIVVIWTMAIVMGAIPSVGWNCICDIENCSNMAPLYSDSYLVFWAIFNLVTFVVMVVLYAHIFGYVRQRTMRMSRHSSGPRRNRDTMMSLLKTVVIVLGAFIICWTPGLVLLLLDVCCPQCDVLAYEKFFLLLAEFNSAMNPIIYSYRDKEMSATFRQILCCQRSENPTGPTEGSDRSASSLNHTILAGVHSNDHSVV

LPA1 [4] = target: T3, LPA1; design: expressed in transfected cells; host or cells: RH7777 rat hepatoma cells; conditions: cited from earlier work
LPA3 [5] = target: T2, LPA3; design: expressed in transfected cells; host or cells: RH7777 rat hepatoma cells; conditions: cited from earlier work
[6] = Table 3, maximal efficacy of drug/maximal efficacy of LPA 18:1

Chain of LPA2 (Q9HBW0 whole entry, species assumed): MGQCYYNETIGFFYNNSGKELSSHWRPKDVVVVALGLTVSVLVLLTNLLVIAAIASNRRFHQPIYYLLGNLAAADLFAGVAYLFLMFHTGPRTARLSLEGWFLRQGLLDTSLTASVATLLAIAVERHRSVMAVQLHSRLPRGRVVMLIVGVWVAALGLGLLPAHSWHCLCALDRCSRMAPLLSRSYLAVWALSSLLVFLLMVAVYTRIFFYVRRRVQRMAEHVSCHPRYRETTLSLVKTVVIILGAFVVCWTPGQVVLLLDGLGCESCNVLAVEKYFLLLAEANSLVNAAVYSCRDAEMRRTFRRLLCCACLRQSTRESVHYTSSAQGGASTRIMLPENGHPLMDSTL

Compound: CCCCCCCCC=CCCCCCCCC1OCC(COP(=O)([O-])O)O1.[K+] (mixture of isomers) [Analog 13]
LPA2 agonist/antagonist activity in words (LPA2): inhibited LPA1-3 receptors
IC50 (LPA2; read-out: LPA2 IC50, Table 3): > 30000 nM
ATX (% inhib.) [1]: 30%
IC50 [1]: 141 nM
PPARγ (PPARγ): Agonist
LPA3 agonist/antagonist activity in words (LPA3 [2]): LPA1/3 antagonist activity
Ki (LPA3 [2]; read-out: LPA3 (Ki), Table 3): 548 nM
EC50 (LPA3 [2]; Table 3): > 30000 nM
IC50 (LPA3 [2]; Table 3): 527 nM

LPA2 agonist/antagonist activity in words (LPA2): pantagonist
EC50 (LPA2; LPA2 EC50, *transient): 1180 nM
EC50 (LPA2; LPA2 EC50, Table 3): > 30000 nM
IC50 (LPA2; RH-LPA2 cells IC50, inhibition of 200 nM LPA response): 397 nM
IC50 (LPA2; RH-LPA2 cells IC50, inhibition of 300 nM LPA response): 657 nM
IC50 (PC3 cells; Homo sapiens, PC-3, inhibition of 100 nM LPA response): 1860 nM
IC50 (PC3 cells; Homo sapiens, PC-3, inhibition of 300 nM LPA response): 2110 nM
ATX (% inhib.) [1]: 26%
IC50 [1]: 232 nM
PPARγ (PPARγ): Agonist
Ki (LPA1 [3]): 652 nM
LPA1 agonist/antagonist activity in words (LPA1 [3]): pantagonist
IC50 (LPA1 [3]; LPA1 IC50, 200 nM LPA): 1110 nM
IC50 (LPA1 [3]; LPA1 IC50, 300 nM LPA): 2150 nM
IC50 (LPA1 [3]; LPA1 IC50, Table 3): 1110 nM
IC50 (LPA1 [3]; RH-LPA1 cells IC50, inhibition of 200 nM LPA response): 1110 nM
IC50 (LPA1 [3]; RH-LPA1 cells IC50, inhibition of 300 nM LPA response): 2150 nM
EC50 (LPA1 [3]; read-out: LPA1 EC50, Table 3): > 30000 nM
Ki (LPA3 [2]): 681 nM
LPA3 agonist/antagonist activity in words (LPA3 [2]): pantagonist
EC50 (LPA3 [2]; Table 3): > 30000 nM
IC50 (LPA3 [2]; 200 nM LPA): 2870 nM
IC50 (LPA3 [2]; Table 3): 2870 nM
Compound: CCCCCCCCCCCCC1OCC(COP(=O)(O)O)O1 (stereo not shown) [Analog 12]

Compound: CCCCCCCC/C=C\CCCCCCCC1OCC(COP([O-])(O)=S)O1.[K+] (stereo not shown) [Analog 14, 2-Heptadec-8-enyl-(1,3)dioxolan-4yl methyldipotassium thiophosphate]
LPA2 effect in words (LPA2; *transient): almost full agonist
EC50 (LPA2; LPA2 EC50, *transient): 34 nM
Emax (LPA2; RH7777, read-out: RH-LPA2 cells maximal response): ~74%
EC50 (LPA2; RH-LPA2 cells EC50, compound alone): 639 nM
RH-LPA2 cells effect of compound alone (LPA2; compound alone): stimulatory effect. Its maximal
EC50 (PC3 cells; Homo sapiens, PC-3, compound alone): 1370 nM
Emax (PC3 cells; Homo sapiens, PC-3, of the LPA-alone max. response, read-out: PC3 cells maximal response): ~86%
PC3 cells effect of compound alone (PC3 cells; compound alone): stimulatory effect. Its maximal
EC50 (LPA1 [3]; LPA1 EC50): 981 nM
Emax (LPA1 [3]; RH7777, read-out: RH-LPA1 cells maximal response): ~50%
EC50 (LPA1 [3]; RH-LPA1 cells EC50, compound alone): 2170 nM
LPA1 effect in words (LPA1 [3]; Tables 2, 4, 6): Partial agonist
RH-LPA1 cells effect of compound alone (LPA1 [3]; compound alone): stimulatory effect. Its maximal
LPA3 effect in words (LPA3 [2]; Tables 2, 4, 6): Partial agonist
EC50 (LPA3 [2]): 639 nM

Compound: CCCCCCCCC=CCCCCCCCC1OCC(COP(=O)([O-])O)O1.[K+] (stereo not shown) [Analog 37]
EC50 (LPA2; read-out: LPA2 EC50, Table 3): > 10000 nM
IC50 (LPA2; read-out: LPA2 IC50, Table 3): > 30000 nM
ATX (% inhib.) [1]: 46%
IC50 [1]: 238 nM
PPARγ (PPARγ): Agonist
LPA3 agonist/antagonist activity in words (LPA3 [2]): LPA3 antagonists
Ki (LPA3 [2]; read-out: LPA3 (Ki), Table 3): 241 nM
EC50 (LPA3 [2]; Table 3): > 30000 nM
IC50 (LPA3 [2]; Table 3): 484 nM

Compound: CCCCCCCCC=CCCCCCCCC1OCC(COP([O-])(O)=S)O1.[K+] (stereo not shown) [Analog 38]
LPA2 agonist/antagonist activity in words (LPA2): pan-agonists
LPA2 (Emax) (LPA2; [6]): 72%
EC50 (LPA2; read-out: LPA2 EC50, Table 3): 1540 nM
IC50 (LPA2; read-out: LPA2 IC50, Table 3): > 30000 nM
ATX (% inhib.) [1]: 64%
IC50 [1]: 363 nM
PPARγ (PPARγ): Agonist
LPA1 agonist/antagonist activity in words (LPA1 [3]): pan-agonists
LPA1 (Emax) (LPA1 [3]; [6]): 68%
EC50 (LPA1 [3]; read-out: LPA1 EC50, Table 3): 2260 nM
IC50 (LPA1 [3]; read-out: LPA1 IC50, Table 3): > 30000 nM
LPA3 agonist/antagonist activity in words (LPA3 [2]): full agonists
LPA3 (Emax) (LPA3 [2]; [6]): 102%
EC50 (LPA3 [2]; Table 3): 204 nM
IC50 (LPA3 [2]; Table 3): > 30000 nM

LPA2 agonist/antagonist activity in words (LPA2): no effect
PPARγ activation in words (PPARγ): agonist of PPARγ
LPA1 agonist/antagonist activity in words (LPA1 [3]): no effect
LPA3 agonist/antagonist activity in words (LPA3 [2]): selective LPA3 antagonist
Ki (LPA3 [2]; read-out: LPA3 (Ki), Table 5): 196 nM
IC50 (LPA3 [2]; Table 5): 414 nM
Compound: CCCCCCCCNC(=O)[C@H](COP(=O)(O)O)NC(=O)CCCCCCC [Cpd 19a]

LPA2 agonist/antagonist activity in words (LPA2): no effect
PPARγ activation in words (PPARγ): no effect
LPA1 agonist/antagonist activity in words (LPA1 [3]): no effect
LPA3 agonist/antagonist activity in words (LPA3 [2]): true LPA3 receptor specific antagonist
Ki (LPA3 [2]; read-out: LPA3 (Ki), Table 5): 489 nM
IC50 (LPA3 [2]; Table 5): 935 nM
Compound: CCCCCCCCNC(=O)[C@@H](COP(=O)(O)O)NC(=O)CCCCCCC [Cpd 19b]

Compound: dioctanoyl glycerol pyrophosphate [DGPP 8:0]
LPA1 activity in words, previously reported (LPA1 [4]): antagonists
LPA3 activity in words, previously reported (LPA3 [5]): antagonists
